Assay results taken from patent US6573248B2, “Monocyclic L-nucleosides, analogs and uses thereof” (ICN Pharmaceuticals, Inc., priority 1996, dated 2003).

| melting point [°C] | SMILES |
| --- | --- |
| 175 to 177 | Cc1cc(=O)[nH]c(=O)n1[C@H]1O[C@@H](CO)[C@H](O)[C@@H]1O [Compound 41, 1-β-L-Ribofuranosyl-6-methyluracil] |
| 210 to 212 | NC(=O)c1nn([C@H]2O[C@@H](CO)[C@H](O)[C@@H]2O)nc1C(N)=O [Compound 32, 2-β-L-Ribofuranosyl-1,2,3-triazole-4,5-dicarboxamide] |
| 193 to 195 | NC(=O)c1nc([C@H]2O[C@@H](CO)[C@H](O)[C@@H]2O)n[nH]1 [Compound 68, 3-β-L-Ribofuranosyl-1,2,4-triazole-5-carboxamide] |
| 209 to 211 | NC(=O)c1cn([C@H]2O[C@@H](CO)[C@H](O)[C@@H]2O)ccc1=O [Compound 34, 1-β-L-ribofuranosylpyridine-4-one-3-carboxamide] |
| 224 to 226 | NC(=O)c1ncn([C@H]2O[C@@H](CO)[C@H](O)[C@@H]2O)c1C(N)=O [Compound 48, 1-β-L-Ribofuranosylimidazole-4,5-dicarboxamide] |
